Source: PubChem BioAssay AID381 (SGCOxCompounds, 2006)

Biological target: Aldo-keto reductase family 1 member C4 (Homo sapiens) (UniProt P17516)
Test: AKR1C4 binders by thermal shift, biophysical, DSF, SYPRO orange, with or without NADPH (AID 381)
Settings: recombinant AKR1C4, DSF thermal shift, at 10 µM, buffer 10 mM HEPES, stronger effect = higher value
[1] = pH 7.5, NaCl 150 mM, NADPH 20 µM, protein 2 µM
[2] = pH 7.5, NaCl 150 mM, protein 2 µM

Aldo-keto reductase family 1 member C4 (Homo sapiens), sequence (P17516 whole entry, looked up): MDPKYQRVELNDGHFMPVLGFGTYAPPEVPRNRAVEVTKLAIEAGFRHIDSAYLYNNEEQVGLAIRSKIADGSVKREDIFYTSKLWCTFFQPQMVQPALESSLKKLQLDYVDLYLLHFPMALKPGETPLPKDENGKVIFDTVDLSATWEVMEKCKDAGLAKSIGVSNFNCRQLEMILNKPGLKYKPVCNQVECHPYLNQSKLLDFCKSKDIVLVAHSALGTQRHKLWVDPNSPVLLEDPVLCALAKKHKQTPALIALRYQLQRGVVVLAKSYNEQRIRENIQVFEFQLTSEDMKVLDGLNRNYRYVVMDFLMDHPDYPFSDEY

SMILES	Tm shift [1] [Celsius]	Tm shift [2] [Celsius]	also measured
Oc1cc(Cl)ccc1Oc1ccc(Cl)cc1Cl	2.3		
CC1(C)[C@@H](O)CC[C@]2(C)[C@H]3C(=O)C=C4[C@@H]5C[C@@](C)(C(=O)O)CC[C@]5(C)CC[C@@]4(C)[C@]3(C)CC[C@@H]12		5	
C[C@]12CC[C@H]3[C@@H](CCC4=CC(=O)CC[C@@]43C)[C@@H]1CC[C@@H]2O	5.3		
CC(=O)[C@H]1CC[C@H]2[C@@H]3CCC4=CC(=O)CC[C@]4(C)[C@H]3CC[C@]12C	4.5		
CC1(C)[C@@H](O)CC[C@]2(C)[C@H]3C(=O)C=C4[C@H]5C[C@@](C)(C(=O)O)CC[C@]5(C)CC[C@@]4(C)[C@]3(C)CC[C@@H]12		5.2	
CC1CC(C)(C)NC(=S)N1CCCC(=O)N1CCN(C(c2ccccc2)c2ccc(Cl)cc2)CC1 (configuration not stated)		2.4	
C[C@]12CC[C@H]3C(=CCc4cc(O)ccc43)[C@@H]1CCC2=O	4.5		
O=c1cc(-c2ccccc2)oc2cc(O)c(O)c(O)c12			Tm shift (NaCl 150 mM, pH 7.5, protein 2 µM): 3.5 Celsius
O=C1C(=O)C(c2ccc(O)cc2O)Oc2cc(O)cc(O)c21 (configuration not stated)		2.1	
CC1(C)[C@@H](OC(=O)CCC(=O)O)CC[C@]2(C)[C@H]3C(=O)C=C4[C@@H]5C[C@@](C)(C(=O)O)CC[C@]5(C)CC[C@@]4(C)[C@]3(C)CC[C@@H]12		7.3	
O=c1cc(-c2ccccc2)oc2cc(O)cc(O)c12		2.3	
O=c1cc(-c2ccc(O)cc2)oc2cc(O)cc(O)c12		2.2	
